{
  "source": "ChEMBL document CHEMBL6109139",
  "about": "“Rational Design of the First Dual Agonist at Trace Amine-Associated Receptor 1 and 5-HT2C Receptors Based on Binding Pocket Similarity for the Treatment of Schizophrenia and Alzheimer's Disease-Related Psychosis” (J Med Chem, 2025)",
  "key": {"[1]": {"target": "Alpha-2A adrenergic receptor (Homo sapiens) (UniProt P08913)", "sequence (P08913 whole entry)": "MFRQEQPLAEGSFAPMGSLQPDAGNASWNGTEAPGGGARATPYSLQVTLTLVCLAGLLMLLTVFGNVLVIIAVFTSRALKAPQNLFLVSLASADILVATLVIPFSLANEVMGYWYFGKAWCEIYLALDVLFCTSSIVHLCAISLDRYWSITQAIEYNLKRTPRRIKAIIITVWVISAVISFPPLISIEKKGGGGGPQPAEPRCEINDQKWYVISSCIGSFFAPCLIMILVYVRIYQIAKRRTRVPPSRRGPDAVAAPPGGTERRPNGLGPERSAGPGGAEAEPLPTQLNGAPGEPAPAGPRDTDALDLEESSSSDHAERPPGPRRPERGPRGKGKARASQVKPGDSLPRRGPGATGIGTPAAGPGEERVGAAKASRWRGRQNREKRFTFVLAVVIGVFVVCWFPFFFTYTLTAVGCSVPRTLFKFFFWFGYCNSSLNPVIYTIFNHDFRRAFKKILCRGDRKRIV", "assay": "Binding affinity to alpha 2A (unknown origin) at 10 uM by radioligand binding assay relative to control"}, "[2]": {"target": "Sodium-dependent dopamine transporter (Homo sapiens) (UniProt Q01959)", "sequence (Q01959 whole entry)": "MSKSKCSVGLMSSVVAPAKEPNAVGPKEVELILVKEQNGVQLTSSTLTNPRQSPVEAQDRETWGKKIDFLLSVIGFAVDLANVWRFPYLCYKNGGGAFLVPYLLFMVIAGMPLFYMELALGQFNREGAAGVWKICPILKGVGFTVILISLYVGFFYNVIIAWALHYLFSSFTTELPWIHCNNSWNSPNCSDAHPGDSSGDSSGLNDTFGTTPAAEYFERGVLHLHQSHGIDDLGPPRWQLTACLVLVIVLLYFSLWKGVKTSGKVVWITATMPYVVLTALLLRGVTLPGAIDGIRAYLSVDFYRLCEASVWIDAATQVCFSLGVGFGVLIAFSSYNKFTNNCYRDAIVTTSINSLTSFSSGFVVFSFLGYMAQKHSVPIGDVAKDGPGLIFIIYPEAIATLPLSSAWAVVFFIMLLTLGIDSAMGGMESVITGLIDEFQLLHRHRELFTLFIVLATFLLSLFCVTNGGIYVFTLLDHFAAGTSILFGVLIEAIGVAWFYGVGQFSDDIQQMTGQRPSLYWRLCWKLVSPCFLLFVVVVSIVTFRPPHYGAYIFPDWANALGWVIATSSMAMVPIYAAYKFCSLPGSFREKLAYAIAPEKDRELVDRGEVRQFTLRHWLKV", "assay": "Binding affinity to DAT receptor (unknown origin) at 10 uM by radioligand binding assay relative to control"}, "[3]": {"assay": "Toxicity in male Beagle dog assessed as change in organ ratios at 0.75 to 2.5 mg/kg, IG administered once daily for 4 weeks and measured after 4 weeks", "format": "organism-based, Canis lupus familiaris", "details": "in vivo, po, 1344 h, dose 0.75-2.5 mg/kg, time 8 weeks"}, "[4]": {"target": "Trace amine-associated receptor 1 (Mus musculus, UniProt Q923Y8)", "sequence (Q923Y8 whole entry)": "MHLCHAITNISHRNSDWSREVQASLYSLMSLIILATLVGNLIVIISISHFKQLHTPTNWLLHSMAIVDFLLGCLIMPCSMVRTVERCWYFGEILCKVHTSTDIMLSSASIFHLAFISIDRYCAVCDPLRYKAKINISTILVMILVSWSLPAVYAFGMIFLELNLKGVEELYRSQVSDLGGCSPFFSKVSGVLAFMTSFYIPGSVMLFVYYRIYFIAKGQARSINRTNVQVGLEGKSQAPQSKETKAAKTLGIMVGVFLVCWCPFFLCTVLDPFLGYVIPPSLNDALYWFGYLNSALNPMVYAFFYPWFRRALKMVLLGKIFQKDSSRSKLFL", "assay": "Agonist activity at mouse TAAR1", "format": "functional"}, "[5]": {"assay": "Toxicity in male Sprague-Dawley rat assessed as irritability at 7.5 mg/kg, po administered once daily for 4 weeks", "format": "organism-based", "details": "in vivo, 672 h"}, "[6]": {"assay": "Toxicity in male Beagle dog assessed as change in food consumption at 0.75 to 2.5 mg/kg, IG administered once daily for 4 weeks and measured after 4 weeks", "format": "organism-based, Canis lupus familiaris", "details": "in vivo, po, 1344 h, dose 0.75-2.5 mg/kg, time 8 weeks"}, "[7]": {"assay": "Toxicity in female Beagle dog assessed as change in urinalysis at 0.75 to 2.5 mg/kg, IG administered once daily for 4 weeks and measured after 4 weeks", "format": "organism-based, Canis lupus familiaris", "details": "in vivo, po, 1344 h, dose 0.75-2.5 mg/kg, time 8 weeks"}, "[8]": {"target": "T1, 5-hydroxytryptamine receptor 2C (Homo sapiens) (UniProt P28335)", "T1 sequence (whole entry)": "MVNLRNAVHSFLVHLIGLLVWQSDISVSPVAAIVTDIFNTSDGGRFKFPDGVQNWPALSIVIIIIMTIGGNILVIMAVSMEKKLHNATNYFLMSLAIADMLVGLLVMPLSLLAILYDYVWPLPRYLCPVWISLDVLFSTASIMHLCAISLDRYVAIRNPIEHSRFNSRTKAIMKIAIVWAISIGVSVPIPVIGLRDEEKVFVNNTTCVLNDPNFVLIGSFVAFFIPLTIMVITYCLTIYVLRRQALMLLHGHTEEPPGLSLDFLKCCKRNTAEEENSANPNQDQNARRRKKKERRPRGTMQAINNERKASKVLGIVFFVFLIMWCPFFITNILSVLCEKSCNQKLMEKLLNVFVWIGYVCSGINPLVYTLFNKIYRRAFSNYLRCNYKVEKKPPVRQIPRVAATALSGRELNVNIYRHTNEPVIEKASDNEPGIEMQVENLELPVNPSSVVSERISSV", "assay": "Agonist activity at recombinant human 5-HT2CR expressed in HEK293 cells incubated for 2 hrs by measuring maximum efficacy by FLIPR calcium assay relative to control", "format": "functional, cell-based", "details": "filed as agonist"}, "[9]": {"target": "Androgen receptor (Homo sapiens) (UniProt P10275)", "sequence (P10275 whole entry)": "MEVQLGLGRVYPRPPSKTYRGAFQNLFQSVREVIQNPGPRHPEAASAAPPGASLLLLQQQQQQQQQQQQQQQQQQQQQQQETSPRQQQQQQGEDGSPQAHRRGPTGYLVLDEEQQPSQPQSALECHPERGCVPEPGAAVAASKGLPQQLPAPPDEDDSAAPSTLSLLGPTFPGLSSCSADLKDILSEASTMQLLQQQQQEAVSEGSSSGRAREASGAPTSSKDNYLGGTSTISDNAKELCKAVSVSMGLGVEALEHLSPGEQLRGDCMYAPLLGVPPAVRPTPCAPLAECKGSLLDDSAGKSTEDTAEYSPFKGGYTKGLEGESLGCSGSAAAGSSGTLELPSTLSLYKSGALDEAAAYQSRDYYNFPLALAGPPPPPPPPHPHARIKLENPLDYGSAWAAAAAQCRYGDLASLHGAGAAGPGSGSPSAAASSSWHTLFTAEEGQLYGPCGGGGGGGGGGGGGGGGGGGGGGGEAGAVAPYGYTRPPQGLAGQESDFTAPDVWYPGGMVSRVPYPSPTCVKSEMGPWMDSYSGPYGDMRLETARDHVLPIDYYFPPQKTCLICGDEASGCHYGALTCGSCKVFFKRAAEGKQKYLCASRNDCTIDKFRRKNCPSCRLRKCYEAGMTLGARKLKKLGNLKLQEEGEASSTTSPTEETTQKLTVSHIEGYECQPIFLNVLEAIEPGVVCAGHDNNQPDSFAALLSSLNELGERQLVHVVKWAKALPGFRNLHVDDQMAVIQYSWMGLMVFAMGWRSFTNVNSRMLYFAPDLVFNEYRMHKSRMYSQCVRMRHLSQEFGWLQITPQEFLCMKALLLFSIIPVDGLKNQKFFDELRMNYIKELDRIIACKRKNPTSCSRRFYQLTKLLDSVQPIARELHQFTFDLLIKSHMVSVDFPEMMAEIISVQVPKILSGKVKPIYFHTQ", "assay": "Binding affinity to AR (unknown origin) at 10 uM by radioligand binding assay relative to control"}, "[10]": {"assay": "Toxicity in male Beagle dog assessed as change in hematology at 0.75 to 2.5 mg/kg, IG administered once daily for 4 weeks and measured after 4 weeks", "format": "organism-based, Canis lupus familiaris", "details": "in vivo, po, 1344 h, dose 0.75-2.5 mg/kg, time 8 weeks"}, "[11]": {"target": "Trace amine-associated receptor 1 (Rattus norvegicus) (UniProt Q923Y9)", "sequence (Q923Y9 whole entry)": "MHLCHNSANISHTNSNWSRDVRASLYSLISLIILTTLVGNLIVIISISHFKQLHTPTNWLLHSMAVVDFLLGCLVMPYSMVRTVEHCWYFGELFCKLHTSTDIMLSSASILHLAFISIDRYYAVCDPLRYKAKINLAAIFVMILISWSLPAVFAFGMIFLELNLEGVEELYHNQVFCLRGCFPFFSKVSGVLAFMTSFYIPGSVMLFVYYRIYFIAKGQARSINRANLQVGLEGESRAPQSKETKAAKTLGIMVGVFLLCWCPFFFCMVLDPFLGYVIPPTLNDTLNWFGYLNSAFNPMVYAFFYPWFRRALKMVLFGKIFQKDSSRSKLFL", "assay": "Agonist activity at rat TAAR1 by measuring maximum efficacy relative to control", "format": "functional", "details": "filed as agonist"}, "[12]": {"assay": "Toxicity in female Sprague-Dawley rat assessed as change in prolactin level at 2.5 to 7.5 mg/kg, po administered once daily for 4 weeks and measured after 4 weeks", "format": "organism-based", "details": "in vivo, 1344 h, dose 2.5-7.5 mg/kg, time 8 weeks"}, "[13]": {"target": "Adenosine receptor A2a (Homo sapiens) (UniProt P29274)", "assay": "Binding affinity to ADORA2A (unknown origin) at 10 uM by radioligand binding assay relative to control"}, "[14]": {"target": "cGMP-inhibited 3',5'-cyclic phosphodiesterase 3A (Homo sapiens) (UniProt Q14432)", "sequence (Q14432 whole entry)": "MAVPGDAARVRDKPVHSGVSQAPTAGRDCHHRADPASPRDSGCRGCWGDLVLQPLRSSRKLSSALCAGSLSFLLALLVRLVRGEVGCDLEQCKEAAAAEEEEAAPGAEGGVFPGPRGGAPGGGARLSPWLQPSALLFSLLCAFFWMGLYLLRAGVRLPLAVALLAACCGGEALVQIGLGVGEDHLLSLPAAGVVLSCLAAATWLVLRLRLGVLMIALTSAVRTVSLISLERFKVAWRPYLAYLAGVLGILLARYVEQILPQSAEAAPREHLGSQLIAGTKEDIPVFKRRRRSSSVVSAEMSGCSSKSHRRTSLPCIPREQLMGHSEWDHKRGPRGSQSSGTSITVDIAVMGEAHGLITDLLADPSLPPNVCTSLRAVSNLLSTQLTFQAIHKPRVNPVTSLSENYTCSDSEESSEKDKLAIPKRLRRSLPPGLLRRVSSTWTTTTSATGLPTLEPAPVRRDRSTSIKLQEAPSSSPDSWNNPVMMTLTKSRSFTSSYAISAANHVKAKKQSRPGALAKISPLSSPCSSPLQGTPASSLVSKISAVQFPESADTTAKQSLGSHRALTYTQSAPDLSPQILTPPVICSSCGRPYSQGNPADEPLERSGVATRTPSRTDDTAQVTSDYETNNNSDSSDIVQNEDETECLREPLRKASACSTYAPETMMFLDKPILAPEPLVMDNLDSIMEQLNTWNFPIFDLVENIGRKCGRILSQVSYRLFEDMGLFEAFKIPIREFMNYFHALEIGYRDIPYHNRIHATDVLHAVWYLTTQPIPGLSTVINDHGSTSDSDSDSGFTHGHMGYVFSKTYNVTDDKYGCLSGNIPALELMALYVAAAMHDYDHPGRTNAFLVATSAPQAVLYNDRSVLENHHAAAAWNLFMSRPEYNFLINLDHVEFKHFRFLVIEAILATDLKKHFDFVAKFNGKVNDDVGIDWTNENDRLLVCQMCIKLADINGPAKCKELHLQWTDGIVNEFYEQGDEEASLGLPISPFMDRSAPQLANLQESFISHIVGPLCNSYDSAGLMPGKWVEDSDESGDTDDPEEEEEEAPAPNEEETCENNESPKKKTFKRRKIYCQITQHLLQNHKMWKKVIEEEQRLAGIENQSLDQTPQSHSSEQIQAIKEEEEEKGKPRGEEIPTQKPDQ", "assay": "Binding affinity to PDE3A receptor (unknown origin) at 10 uM by radioligand binding assay relative to control"}, "Mus musculus [15]": {"system": "Mus musculus", "assay": "Antipsychotic activity against MK-801 induced hyperlocomotion in male C57BL/6J mouse model assessed as reduction in hyperlocomotive state at 5 mg/kg, IG pretreated with compound followed by MK-801 addition and measured after 30 mins by open field test", "format": "functional, organism-based"}, "[16]": {"target": "T2, 5-hydroxytryptamine receptor 2C (Homo sapiens, UniProt P28335)", "T2 sequence (P28335 whole entry)": "T1 sequence (whole entry)", "assay": "Agonist activity at recombinant human 5-HT2CR expressed in HEK293 cells incubated for 2 hrs by FLIPR calcium assay", "format": "functional, cell-based"}, "Mus musculus [17]": {"system": "Mus musculus", "assay": "Antipsychotic activity against DOI-induced head-twitch response in mouse assessed as reduction in head-twitch response at 10 mg/kg, IG measured for 30 mins relative to control", "format": "functional", "parameters": "scale not given: the % may be the effect or the level left", "details": "0.5 h"}, "[18]": {"target": "Histamine H2 receptor (Homo sapiens) (UniProt P25021)", "sequence (P25021 whole entry)": "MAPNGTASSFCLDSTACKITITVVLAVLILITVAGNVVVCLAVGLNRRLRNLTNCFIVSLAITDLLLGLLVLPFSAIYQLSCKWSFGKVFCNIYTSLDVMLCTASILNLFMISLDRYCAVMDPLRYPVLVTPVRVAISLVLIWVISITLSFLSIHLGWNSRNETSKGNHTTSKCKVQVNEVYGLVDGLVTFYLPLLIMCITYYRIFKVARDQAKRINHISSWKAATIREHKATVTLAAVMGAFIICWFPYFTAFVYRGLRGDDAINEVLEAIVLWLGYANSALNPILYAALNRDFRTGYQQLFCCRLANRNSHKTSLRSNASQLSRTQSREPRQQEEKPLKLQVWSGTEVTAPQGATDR", "assay": "Binding affinity to H2 receptor (unknown origin) at 10 uM by radioligand binding assay relative to control"}, "[19]": {"assay": "Toxicity in female Sprague-Dawley rat assessed as change in clinical chemistry at 2.5 to 7.5 mg/kg, po administered once daily for 4 weeks and measured after 4 weeks", "format": "organism-based", "details": "in vivo, 1344 h, dose 2.5-7.5 mg/kg, time 8 weeks"}, "Mus musculus [20]": {"system": "Mus musculus", "assay": "Antipsychotic activity against MK-801 induced hyperlocomotion in male C57BL/6J mouse model at 3 mg/kg, IG […] followed by compound addition and measured after 30 mins by open field test", "format": "functional, organism-based"}, "[21]": {"assay": "Toxicity in female Beagle dog assessed as change in organ weight at 0.75 to 2.5 mg/kg, IG administered once daily for 4 weeks and measured after 4 weeks", "format": "organism-based, Canis lupus familiaris", "details": "in vivo, po, 1344 h, dose 0.75-2.5 mg/kg, time 8 weeks"}, "[22]": {"assay": "Toxicity in male Sprague-Dawley rat assessed as slow respiration at 7.5 mg/kg, po administered once daily for 4 weeks and measured after 4 weeks", "format": "organism-based", "details": "in vivo, 1344 h, time 8 weeks"}, "[23]": {"target": "D(1A) dopamine receptor (Homo sapiens) (UniProt P21728)", "sequence (P21728 whole entry)": "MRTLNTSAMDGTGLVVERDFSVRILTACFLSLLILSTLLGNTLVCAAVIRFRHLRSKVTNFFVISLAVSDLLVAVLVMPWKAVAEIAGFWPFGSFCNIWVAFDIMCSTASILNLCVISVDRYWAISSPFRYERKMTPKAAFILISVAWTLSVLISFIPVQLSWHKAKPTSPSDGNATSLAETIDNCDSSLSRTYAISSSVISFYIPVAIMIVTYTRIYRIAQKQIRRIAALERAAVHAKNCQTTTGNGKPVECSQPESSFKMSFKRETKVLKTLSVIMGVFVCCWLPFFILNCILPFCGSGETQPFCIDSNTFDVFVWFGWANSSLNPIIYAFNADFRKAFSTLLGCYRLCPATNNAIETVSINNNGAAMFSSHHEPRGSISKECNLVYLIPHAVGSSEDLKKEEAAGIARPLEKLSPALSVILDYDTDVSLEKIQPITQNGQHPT", "assay": "Binding affinity to D1 receptor (unknown origin) at 10 uM by radioligand binding assay relative to control"}, "[24]": {"assay": "Toxicity in male Sprague-Dawley rat assessed as change in hematology at 2.5 to 7.5 mg/kg, po administered once daily for 4 weeks and measured after 4 weeks", "format": "organism-based", "details": "in vivo, 1344 h, dose 2.5-7.5 mg/kg, time 8 weeks"}, "[25]": {"target": "5-hydroxytryptamine receptor 1B (Homo sapiens) (UniProt P28222)", "sequence (P28222 whole entry)": "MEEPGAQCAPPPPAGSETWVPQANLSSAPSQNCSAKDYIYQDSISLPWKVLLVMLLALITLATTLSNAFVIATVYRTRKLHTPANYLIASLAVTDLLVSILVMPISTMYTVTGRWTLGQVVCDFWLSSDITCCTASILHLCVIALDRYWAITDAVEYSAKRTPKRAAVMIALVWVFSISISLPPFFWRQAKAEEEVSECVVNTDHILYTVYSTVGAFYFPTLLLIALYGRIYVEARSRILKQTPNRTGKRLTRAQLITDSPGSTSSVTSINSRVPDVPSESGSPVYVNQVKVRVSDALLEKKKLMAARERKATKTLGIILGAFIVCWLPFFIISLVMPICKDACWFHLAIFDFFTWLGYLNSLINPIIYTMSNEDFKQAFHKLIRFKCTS", "assay": "Binding affinity to 5-HT1B (unknown origin) at 10 uM by radioligand binding assay relative to control"}, "Mus musculus [26]": {"system": "Mus musculus", "assay": "Antidepressant activity in chronic social defeat stress induced depressive C57BL/6J mouse model assessed as increase in time of interaction zone administered intragastrically measured after 15 mins by open field test", "format": "functional, organism-based", "details": "dose 0.5-2 mg/kg"}, "[27]": {"assay": "Toxicity in male Sprague-Dawley rat assessed as change in organ weight at 2.5 to 7.5 mg/kg, po administered once daily for 4 weeks and measured after 4 weeks", "format": "organism-based", "details": "in vivo, 1344 h, dose 2.5-7.5 mg/kg, time 8 weeks"}, "Cytochrome P450 3A4": {"target": "Cytochrome P450 3A4 (Homo sapiens, UniProt P08684)", "assay": "Inhibition of CYP3A4 in human liver microsomes in presence of NADPH by LC-MS/MS analysis", "format": "ADME, Microsome"}, "[28]": {"assay": "Toxicity in female Sprague-Dawley rat assessed as minimal corneal neovascularization at 7.5 mg/kg, po administered once daily for 4 weeks", "format": "organism-based", "details": "in vivo, 672 h"}, "[29]": {"assay": "Toxicity in male Sprague-Dawley rat assessed as suppression of body weight gain at 7.5 mg/kg, po administered once daily for 4 weeks and measured after 4 weeks", "format": "organism-based", "details": "in vivo, 1344 h, time 8 weeks"}, "MAO-A": {"target": "MAO-A (Homo sapiens, UniProt P21397)", "assay": "Binding affinity to MAO-A (unknown origin) at 10 uM by radioligand binding assay relative to control", "details": "read-out: Activity"}},
  "note": "Active and inactive are the calls of the source. No cut-off for these calls is given here.",
  "data": [
    {"smiles": "c1cc2c(s1)[C@@H]1CNCCN1CC2", "values": [
      {"measurement": "Activity", "setting": "[1]", "result": 72.7, "unit": "%"},
      {"measurement": "Activity", "setting": "[2]", "result": -6.53, "unit": "%"},
      {"measurement": "Activity", "setting": "[3]", "result": "Non-toxic"},
      {"measurement": "EC50", "setting": "[4]", "result": 72.3, "unit": "nM"},
      {"measurement": "Activity", "setting": "[5]", "result": "Toxic"},
      {"measurement": "Activity", "setting": "[6]", "result": "Non-toxic"},
      {"measurement": "Activity", "setting": "[7]", "result": "Non-toxic"},
      {"measurement": "Emax", "setting": "[8]", "result": 100, "unit": "%"},
      {"measurement": "Activity", "setting": "[9]", "result": -5.37, "unit": "%"},
      {"measurement": "Activity", "setting": "[10]", "result": "Non-toxic"},
      {"measurement": "Emax", "setting": "[11]", "result": 99.5, "unit": "%"},
      {"measurement": "Activity", "setting": "[12]", "result": "Non-toxic"},
      {"measurement": "Activity", "setting": "[13]", "result": -1.11, "unit": "%"},
      {"measurement": "Activity", "setting": "[14]", "result": 3.89, "unit": "%"},
      {"measurement": "Activity", "setting": "Mus musculus [15]", "result": "Active; More Effective Than Aripiprazole"},
      {"measurement": "EC50", "setting": "[16]", "result": 246, "unit": "nM"},
      {"measurement": "Activity", "setting": "Mus musculus [17]", "result": 100, "unit": "%"},
      {"measurement": "Activity", "setting": "[18]", "result": 1.39, "unit": "%"},
      {"measurement": "Activity", "setting": "[19]", "result": "Non-toxic"},
      {"measurement": "Activity", "setting": "Mus musculus [20]", "result": "inactive"},
      {"measurement": "Activity", "setting": "[21]", "result": "Non-toxic"},
      {"measurement": "Activity", "setting": "[22]", "result": "Non-toxic"},
      {"measurement": "Activity", "setting": "[23]", "result": 45.9, "unit": "%"},
      {"measurement": "Activity", "setting": "[24]", "result": "Non-toxic"},
      {"measurement": "Activity", "setting": "[25]", "result": 47.9, "unit": "%"},
      {"measurement": "Activity", "setting": "Mus musculus [26]", "result": "Dose-dependent-effect"},
      {"measurement": "Activity", "setting": "[27]", "result": "Non-toxic"},
      {"measurement": "IC50", "setting": "Cytochrome P450 3A4", "result": "> 50000", "unit": "nM"},
      {"measurement": "Activity", "setting": "[28]", "result": "Toxic"},
      {"measurement": "Activity", "setting": "[29]", "result": "Toxic"},
      {"measurement": "activity at 10 µM", "setting": "MAO-A", "result": 5.33, "unit": "%"}
    ]}
  ]
}
